{"source": "patent US5591726A", "about": "“Heterocyclylalkyl diarylboron ester and thioester fungicidal agents” (American Cyanamid Company, priority 1994, dated 1997); for Disease control rating, AS: ranges in brackets are in %; for Disease control rating, GDM: ranges in brackets are in %; for Disease control rating, PB: ranges in brackets are in %; for Disease control rating, SBC: ranges in brackets are in %; for Disease control rating, TEB: ranges in brackets are in %; for Disease control rating, WPM: ranges in brackets are in %; for Growth inhibition rating, FUSOXC: ranges in brackets are in %; for Growth inhibition rating, PSDCHE: ranges in brackets are in %; for Growth inhibition rating, RHIZSO: ranges in brackets are in %", "key": {"Pythium ultimum": {"tested_on": "Pythium ultimum", "experiment": "In vitro fungicidal evaluation, PYTHUL; note: ranges in brackets are in %", "format": "cell-based", "conditions": "25 ppm; 3-7 days at 21° C.", "experimental": "(§1) Test compounds are dissolved or suspended in acetone and dispersed into cell well plates containing a suspension of ground fungal mycelia/spores in a nutrient broth. Assay plates are incubated for 3-7 days at 21° C. Growth inhibition is measured visually and is rated using the following scale:\n(§2) Untreated controls, solvent blanks and reference standards are included in each test.\n(§3) Assay fungi include the plant pathogens, Pythium ultimum (PYTHUL); Rhizoctonia solani (RHIZSO); Fusarium oxysporum f. sp. cucumerinum (FUSOXC); and Pseudocercosporella herpotrichoides (PSDCHE).\n(§4) When more than one test is run, the data are averaged. The compounds evaluated are reported by compound number given in Example 3."}, "[1]": {"tested_on": "Erysiphe graminis f. sp. tritici", "experiment": "In vivo fungicidal evaluation, Wheat Powdery Mildew (WPM)", "conditions": "200 ppm foliar spray", "experimental": "(§5) Test compounds are dissolved or suspended in acetone and diluted with deionized water containing about 0.05% TWEEN®20, a polyoxyethylene sorbitan monolaurate surfactant manufactured by Atlas Chemical Industries, to give a concentration of 200 ppm. Host plants are sprayed with the test solution, dried and inoculated with fungi. When disease symptom development is optimal, the plants are rated for disease control according to the rating scale shown below. Each test contains inoculated treated plants, inoculated untreated plants and a reference standard. When more than one test is run, the data are averaged. The data obtained are shown in Table I. |WPM Wheat Powdery Mildew | Erysiphe graminis | f. sp. tritici"}, "Alternaria solani": {"tested_on": "Alternaria solani", "experiment": "In vivo fungicidal evaluation, Tomato Early Blight (TEB)", "conditions": "200 ppm foliar spray", "experimental": "as §5, with “|TEB Tomato Early Blight” for “|WPM Wheat Powdery Mildew”, “Alternaria solani” for “Erysiphe graminis | f. sp. tritici”"}, "[2]": {"tested_on": "Pseudocercosporella herpotrichoides", "experiment": "In vitro fungicidal evaluation, PSDCHE", "format": "cell-based", "conditions": "25 ppm; 3-7 days at 21° C.", "experimental": "as §1, §2, §3, §4"}, "[3]": {"tested_on": "Fusarium oxysporum f. sp. cucumerinum", "experiment": "In vitro fungicidal evaluation, FUSOXC", "format": "cell-based", "conditions": "25 ppm; 3-7 days at 21° C.", "experimental": "as §1, §2, §3, §4"}, "Plasmopara viticola": {"tested_on": "Plasmopara viticola", "experiment": "In vivo fungicidal evaluation, Grape Downy Mildew (GDM)", "conditions": "200 ppm foliar spray", "experimental": "as §5, with “|GDM Grape Downy” for “|WPM Wheat Powdery”, “Plasmopara viticola” for “Erysiphe graminis | f. sp. tritici”"}, "[4]": {"tested_on": "Ustilago avenae (triadimefon-resistant and -sensitive strains)", "format": "cell-based", "conditions": "EC50 resistant strain / EC50 sensitive strain, 50 to 54 hours"}, "Septoria nodorum": {"tested_on": "Septoria nodorum", "experiment": "In vivo fungicidal evaluation, Wheat Septoria Nodorum (WSN)", "conditions": "200 ppm foliar spray", "experimental": "Test compounds are dissolved or suspended in acetone and diluted with deionized water containing about 0.05% TWEEN®20, a polyoxyethylene sorbitan monolaurate surfactant manufactured by Atlas Chemical Industries, to give a concentration of 200 ppm.\nHost plants are sprayed with the test solution, dried and inoculated with fungi. When disease symptom development is optimal, the plants are rated for disease control according to the rating scale shown below. Each test contains inoculated treated plants, inoculated untreated plants and a reference standard. When more than one test is run, the data are averaged.\nWSN Wheat Septoria Nodorum"}, "Pyricularia grisea": {"tested_on": "Pyricularia grisea", "format": "in vivo", "conditions": "Rice Blast; 200 ppm foliar spray"}, "[5]": {"tested_on": "Septoria nodorum (propiconazole-resistant and -sensitive strains)", "format": "cell-based", "conditions": "EC50 resistant strain / EC50 sensitive strain, 50 to 54 hours"}, "Botrytis cinerea": {"tested_on": "Botrytis cinerea", "experiment": "In vivo fungicidal evaluation, Pepper Botrytis (PB)", "conditions": "200 ppm foliar spray", "experimental": "as §5, with “|PB Pepper Botrytis Botrytis cinerea” for “|WPM Wheat Powdery Mildew | Erysiphe graminis | f. sp. tritici”"}, "Cercospora beticola": {"tested_on": "Cercospora beticola", "experiment": "In vivo fungicidal evaluation, Sugar Beet Cercospora (SBC)", "conditions": "200 ppm foliar spray", "experimental": "as §5, with “|SBC Sugar Beet Cercospora” for “|WPM Wheat Powdery Mildew”, “Cercospora beticola” for “Erysiphe graminis | f. sp. tritici”"}, "Rhizoctonia solani": {"tested_on": "Rhizoctonia solani", "experiment": "In vitro fungicidal evaluation, RHIZSO", "format": "cell-based", "conditions": "25 ppm; 3-7 days at 21° C.", "experimental": "as §1, §2, §3, §4"}, "[6]": {"tested_on": "Cladosporium cucumerinum (fenarimol-resistant and -sensitive strains)", "format": "cell-based", "conditions": "EC50 resistant strain / EC50 sensitive strain, 50 to 54 hours"}, "Venturia inaequalis": {"tested_on": "Venturia inaequalis", "experiment": "In vivo fungicidal evaluation, Apple Scab (AS)", "conditions": "200 ppm foliar spray", "experimental": "as §5, with “|AS Apple Scab Venturia inaequalis” for “|WPM Wheat Powdery Mildew | Erysiphe graminis | f. sp. tritici”"}}}
{"smiles": "Clc1ccc(C(Cn2ccnc2)OB(c2ccccc2)c2ccccc2)c(Cl)c1", "note": "(stereo not drawn) [Compound 6, 1-(2,4-Dichlorophenyl)-2-(imidazol-1-yl)ethyl diphenylborinate]", "values": [{"measurement": "Growth inhibition rating, PYTHUL", "setting": "Pythium ultimum", "result": "7 (90-99)"}, {"measurement": "Disease control rating, WPM", "setting": "[1]", "result": "8 (96-99)"}, {"measurement": "Disease control rating, TEB", "setting": "Alternaria solani", "result": "0 (0)"}, {"measurement": "Growth inhibition rating, PSDCHE", "setting": "[2]", "result": "0 (0)"}, {"measurement": "Growth inhibition rating, FUSOXC", "setting": "[3]", "result": "9 (100)"}, {"measurement": "Disease control rating, GDM", "setting": "Plasmopara viticola", "result": "0 (0)"}, {"measurement": "Resistance Factor, Ustilago avenae", "setting": "[4]", "result": 1.6}, {"measurement": "Disease control rating, WSN", "setting": "Septoria nodorum", "result": "0 (0)"}, {"measurement": "Disease control rating, RB", "setting": "Pyricularia grisea", "result": "0 (0)"}, {"measurement": "Resistance Factor, Septoria nodorum", "setting": "[5]", "result": 1.0}, {"measurement": "Disease control rating, PB", "setting": "Botrytis cinerea", "result": "0 (0)"}, {"measurement": "Disease control rating, SBC", "setting": "Cercospora beticola", "result": "5 (60-74)"}, {"measurement": "Growth inhibition rating, RHIZSO", "setting": "Rhizoctonia solani", "result": "9 (100)"}, {"measurement": "Resistance Factor, Cladosporium cucumerinum", "setting": "[6]", "result": 1.1}, {"measurement": "Disease control rating, AS", "setting": "Venturia inaequalis", "result": "3 (30-44)"}]}
